Assay results from patent US12239640B2, “Use of miloxacin in preparation of medicines for treating and/or preventing diseases with T-type calcium channels as therapeutic target” (SOOCHOW UNIVERSITY, priority 2020, dated 2025).

Columns and labels:
[1] = tested on: CFA-induced inflammatory pain model rats; test: Facial pain threshold of CFA-induced inflammatory pain model rats (von Frey); format: in vivo, rat; details: day 2 after CFA; for effect on facial pain threshold (mechanical hyperalgesia), CFA model: at 3 h
Description: Adult healthy male SD rats weighed 200-250 g were used. Before the experiment, the animals were allowed to acclimate to the breeding environment for three days. The model was established by a routine laboratory method. CFA was injected subcutaneously into the rat's facial whisker pad at a dose of 20 μl/mouse. Individuals with hyperalgesia and swelling of […] on day 2 after CFA injection were used as the experimental subjects, that is, the rats in the experiment group. Before the behavioral test, the rats were housed in a plexiglass box on a wire mesh frame to acclimate to the environment for three consecutive days, for 1 h each time. Test method: The middle part of the whisker pad was stimulated with von Frey filament at 1 g. If there were 3 escapes in 5 consecutive stimulations, the response was positive. Then, the same operation was repeated with von Frey filament at a lower level of intensity. If there was no positive response, the middle part of the whisker pad was stimulated with von Frey filament at a higher level of intensity. The minimum intensity at which a positive response occurs is taken as the facial pain threshold, that is, the facial mechanical pain threshold. It can be seen that CFA induction can lower the facial pain threshold of rats. • 3. Effect of miloxacin on the facial pain threshold of CFA-induced inflammatory pain model rats: 27 rats with CFA-induced inflammation obtained by the above method were divided into three groups, each having 9 rats. On day 2 after CFA induction, 10 nmol miloxacin was locally injected into the trigeminal ganglion of rats in the first group, 5 nmol miloxacin was locally injected into the trigeminal ganglion of rats in the second group, and the corresponding solvent DMSO was locally injected into the trigeminal ganglion of rats in the third group. After 1 h, 3 h, 6 h, 12 h, 18 h, and 24 h, the facial pain threshold of each group was detected. […] Study on the analgesic mechanism of miloxacin in CFA-induced inflammatory pain model rats: On day 2 after CFA induction, 2 nmol TTA-P2 was locally injected into the trigeminal ganglion, and then 10 nmol miloxacin was locally injected into the trigeminal ganglion after 30 min, which was used as the TTA-P2 group. The other group was injected with the corresponding solvent DMSO, and then administered with 10 nmol miloxacin by local injection 30 min later, which was used as the solvent group. TTA-P2 is a T-type calcium channel blocker, and the solvent for TTA-P2 is DMSO.

CCI-ION model rats = test: Facial pain threshold of trigeminal neuropathic pain (CCI-ION) model rats (von Frey); format: in vivo, rat; details: day 14 after model; for effect on facial pain threshold (mechanical hyperalgesia), CCI-ION model: at 3 h
Description: Adult healthy male SD rats weighed 200-250 g were used. Before the experiment, the animals were allowed to acclimate to the breeding environment for three days. The rats were anesthetized with 4% chloral hydrate at an injection dose of 1 ml/100 g body weight. The tongue of the anesthetized rat in a supine position was pulled out and to the right to expose the left side of the mouth. At the level of the left maxillary first molar, a longitudinal incision of about 1 cm was cut along the gingival edge of the buccal aspect, and the tissue was bluntly isolated, to carefully expose the infraorbital nerve. The proximal and distal ends of the infraorbital nerve were loosely ligated with 5-0 suture, where the distance between the two ligatures was about 2 mm, and the tension was moderate. […] The process was the same as that in Example 4. It can be seen that CCI-ION can lower the facial pain threshold of rats. • 2. Effect of miloxacin on the facial pain threshold of CCI-ION model rats: 27 CCI-ION model rats obtained by the above method were divided into three groups, each having 9 rats. On day 14 after the CCI-ION model was established, 10 nmol miloxacin was locally injected into the trigeminal ganglion of rats in the first group, 5 nmol miloxacin was locally injected into the trigeminal ganglion of rats in the second group, and the corresponding solvent DMSO was locally injected into the trigeminal ganglion of rats in the third group. After 1 h, 3 h, 6 h, 9 h, 12 h, and 24 h, the facial pain threshold of each group was detected. […] Study on the analgesic mechanism of miloxacin in CCI-ION model rats: On day 14 after the CCI-ION model was established, 2 nmol TTA-P2 was locally injected into the trigeminal ganglion, and then 10 nmol miloxacin was locally injected into the trigeminal ganglion 30 min later, which was used as the TTA-P2 group. The other group was injected with the corresponding solvent DMSO, and then administered with 10 nmol miloxacin by local injection 30 min later, which was used as the solvent group.

[2] = target: T1, T-type calcium channel subtype Cav3.1 (Homo sapiens, UniProt O43497); test: Whole-cell voltage clamp of Cav3.1 current in transfected HEK293 cells; format: cell-based
T1 construct: expressed in transfected cells; host or cells: HEK293 cells
Description: (§1) 1. Preparation before transfection: A flask of HEK293 cell culture was removed of the culture medium, and gently washed twice by adding 3 ml of a phosphate buffer. Then, the cells were digested by adding 1 ml of 0.25% trypsin, and pipetted by adding DMEM medium after 3-5 min to collect the cells. The cells were centrifuged at 1000 rpm for 5 min, and the supernatant was discarded. 5-10 ml of DMEM medium was added to suspend the cells. The cells were slowly pipetted again, then subcultured in a 35 mm petri dish covered with glass slides, and transfected after 24 h.
(§2) 2. Transfection: The cells were transfected by liposome transfection, where the transfection reagent was Lipofectamine 3000, and the materials used: Cav3 plasmid 1.5 μg, transfection enhancement factor (TAG) 0.25 μg, and enhanced green fluorescent protein (EGFP) 0.1 μg. 48-72 h after transfection, the whole-cell patch clamp technique was used to record fluorescent HEK293 cells, with 9-12 cells per group.
(§3) The base sequences of Cav3.1, Cav3.2 and Cav3.3 plasmids were verified by gene sequencing and confirmed by DNA Star sequence analysis and alignment software that they are respectively consistent with the sequence Nos. NM_198376.3 (Cav3.1), NM_021098.3 (Cav3.2) and NM_021096.4 (Cav3.3) published in the NCBI database.
(§4) At room temperature, Multiclamp700B amplifier was used for whole-cell voltage clamp recording. The glass electrode was a drawn electrode, and the resistance of the electrode filled with intracellular fluid was 3-5 MΩ. DigiData1322A was converted into a digital signal in pClamp10.2 software. The series resistance compensation was 70-80%. The stimulating square wave was depolarized to −30 mV with a clamping voltage of −90 mV, and then returned to the clamping potential level. The current amplitude of the T-type calcium channel at this time was recorded.
(§5) Internal pipette solution: 110 cesium chloride, 4 magnesium-ATP, 0.3 sodium-GTP, 25 HEPES, 10 EGTA. External pipette solution: 5 barium chloride, 140 tetraethylamine chloride, 5 cesium chloride, 0.5 magnesium chloride, 5.5 glucose, 10 HEPES. […]

[3] = target: T2, T-type calcium channel subtype Cav3.2 (Homo sapiens, UniProt O95180); test: Whole-cell voltage clamp of Cav3.2 current in transfected HEK293 cells; format: cell-based
T2 construct: expressed in transfected cells; host or cells: HEK293 cells
Description: as §1, §2, §3, §4, §5

[4] = target: T3, T-type calcium channel subtype Cav3.3 (Homo sapiens, UniProt Q9P0X4); test: Whole-cell voltage clamp of Cav3.3 current in transfected HEK293 cells; format: cell-based; details: 10 μM miloxacin, step -90 mV to -30 mV
T3 construct: expressed in transfected cells; host or cells: HEK293 cells
Description: as §1
as §2, with “group. […]” for “group.”
At room temperature, Multiclamp700B amplifier was used for whole-cell voltage clamp recording. […] The current amplitude of the T-type calcium channel at this time was recorded. […]

T-type calcium channel = T-type calcium channel current in acutely dissociated primary rat trigeminal ganglion neurons; format: cell-based
From the text: Specifically, trigeminal ganglion neurons from adult male SD rats were acutely dissociated under the conditions of enzymatic hydrolysis of trigeminal ganglion neurons (Zhang Y et al., J Pineal Res, 2018, 64, e12476).
The trigeminal ganglia of male SD rats weighed about 220 g were exposed after anesthesia. The bilateral trigeminal ganglia were taken by using microscopic dissecting forceps, removed of their fiber connections, and then immediately placed in ice-cold oxygenated DMEM medium. The trigeminal ganglion in the culture medium was transferred into 3 mg/ml collagenase digestion solution, cut into pieces with microscissors, and digested at 37° C. for 45 min, and then digested in 2 mg/ml trypsin digestion solution for another 15 min. After the above operations, the digestion was terminated by adding DMEM medium containing 10% fetal bovine serum. The cells were dispersed by repeatedly pipetting, and filtered through a 40 μm cell sieve. The resulting suspension was centrifuged at 800 rpm for 3 min. After centrifugation, the supernatant was discarded, and the cell pellet was resuspended in DMEM medium. After resuspension, the cell suspension was seeded on a cover glass pre-coated with polylysine in a 24-well culture plate, and placed in an incubator at 37° C. with 5% CO2 for later use.
The process was the same as that in Example 1. […]

[5] = tested on: trigeminal ganglion neurons; test: Firing of neuronal action potential in acutely dissociated rat trigeminal ganglion neurons (current clamp); format: cell-based; details: 10 μM miloxacin, 180 pA for 1 sec; control 13.3±1.5
Description: The process was the same as that in Example 2. At room temperature, Multiclamp 700B amplifier was used for whole-cell current clamp recording. A current of 180 pA was injected into the cell for 1 sec to stabilize the cell at −70 mV, and the frequency of the generated action potential was recorded. Internal pipette solution: 10 sodium chloride, 110 potassium chloride, 2 EGTA, 25 HEPES, 0.5 sodium-GTP, 4 magnesium-ATP. External pipette solution: 2 potassium chloride, 128 sodium chloride, 2 calcium chloride, 2 magnesium chloride, 30 glucose, 25 HEPES. The unit is mM, that is, millimoles/liter. 10 μM miloxacin was directly administered to the T-type calcium channel in the trigeminal ganglion neurons as the treatment group. The groups before miloxacin administration were used as control groups.

normal rats = test: Facial pain threshold of normal rats (von Frey); format: in vivo, rat; details: 10 nmol injected into trigeminal ganglion, vs. solvent group
Description: Before the behavioral test, the rats were housed in a plexiglass box on a wire mesh frame to acclimate to the environment for three consecutive days, for 1 h each time. Test method: The middle part of the whisker pad was stimulated with von Frey filament at 1 g. If there were 3 escapes in 5 consecutive stimulations, the response was positive. Then, the same operation was repeated with von Frey filament at a lower level of intensity. If there was no positive response, the middle part of the whisker pad was stimulated with von Frey filament at a higher level of intensity. The minimum intensity at which a positive response occurs is taken as the facial pain threshold, that is, the facial mechanical pain threshold. • 1. Effect of miloxacin on the facial pain threshold of normal rats (without CFA induction): 20 normal rats were divided into two groups, each having 10 rats. The first group was a solvent group, and the second group was a treatment group. 10 nmol miloxacin was injected into the trigeminal ganglion of the second group of rats, and the corresponding solvent DMSO was injected into the trigeminal ganglion of the first group of rats.

[6] = 2 nmol local injection into trigeminal ganglion
[7] = 10 μM miloxacin, step -90 mV to -30 mV
[8] = 5 nmol local injection into trigeminal ganglion
[9] = 10 nmol local injection into trigeminal ganglion
[10] = 10 nmol miloxacin 30 min after 2 nmol TTA-P2, trigeminal ganglion

T1 sequence (O43497 1-2171 isoform O43497-5): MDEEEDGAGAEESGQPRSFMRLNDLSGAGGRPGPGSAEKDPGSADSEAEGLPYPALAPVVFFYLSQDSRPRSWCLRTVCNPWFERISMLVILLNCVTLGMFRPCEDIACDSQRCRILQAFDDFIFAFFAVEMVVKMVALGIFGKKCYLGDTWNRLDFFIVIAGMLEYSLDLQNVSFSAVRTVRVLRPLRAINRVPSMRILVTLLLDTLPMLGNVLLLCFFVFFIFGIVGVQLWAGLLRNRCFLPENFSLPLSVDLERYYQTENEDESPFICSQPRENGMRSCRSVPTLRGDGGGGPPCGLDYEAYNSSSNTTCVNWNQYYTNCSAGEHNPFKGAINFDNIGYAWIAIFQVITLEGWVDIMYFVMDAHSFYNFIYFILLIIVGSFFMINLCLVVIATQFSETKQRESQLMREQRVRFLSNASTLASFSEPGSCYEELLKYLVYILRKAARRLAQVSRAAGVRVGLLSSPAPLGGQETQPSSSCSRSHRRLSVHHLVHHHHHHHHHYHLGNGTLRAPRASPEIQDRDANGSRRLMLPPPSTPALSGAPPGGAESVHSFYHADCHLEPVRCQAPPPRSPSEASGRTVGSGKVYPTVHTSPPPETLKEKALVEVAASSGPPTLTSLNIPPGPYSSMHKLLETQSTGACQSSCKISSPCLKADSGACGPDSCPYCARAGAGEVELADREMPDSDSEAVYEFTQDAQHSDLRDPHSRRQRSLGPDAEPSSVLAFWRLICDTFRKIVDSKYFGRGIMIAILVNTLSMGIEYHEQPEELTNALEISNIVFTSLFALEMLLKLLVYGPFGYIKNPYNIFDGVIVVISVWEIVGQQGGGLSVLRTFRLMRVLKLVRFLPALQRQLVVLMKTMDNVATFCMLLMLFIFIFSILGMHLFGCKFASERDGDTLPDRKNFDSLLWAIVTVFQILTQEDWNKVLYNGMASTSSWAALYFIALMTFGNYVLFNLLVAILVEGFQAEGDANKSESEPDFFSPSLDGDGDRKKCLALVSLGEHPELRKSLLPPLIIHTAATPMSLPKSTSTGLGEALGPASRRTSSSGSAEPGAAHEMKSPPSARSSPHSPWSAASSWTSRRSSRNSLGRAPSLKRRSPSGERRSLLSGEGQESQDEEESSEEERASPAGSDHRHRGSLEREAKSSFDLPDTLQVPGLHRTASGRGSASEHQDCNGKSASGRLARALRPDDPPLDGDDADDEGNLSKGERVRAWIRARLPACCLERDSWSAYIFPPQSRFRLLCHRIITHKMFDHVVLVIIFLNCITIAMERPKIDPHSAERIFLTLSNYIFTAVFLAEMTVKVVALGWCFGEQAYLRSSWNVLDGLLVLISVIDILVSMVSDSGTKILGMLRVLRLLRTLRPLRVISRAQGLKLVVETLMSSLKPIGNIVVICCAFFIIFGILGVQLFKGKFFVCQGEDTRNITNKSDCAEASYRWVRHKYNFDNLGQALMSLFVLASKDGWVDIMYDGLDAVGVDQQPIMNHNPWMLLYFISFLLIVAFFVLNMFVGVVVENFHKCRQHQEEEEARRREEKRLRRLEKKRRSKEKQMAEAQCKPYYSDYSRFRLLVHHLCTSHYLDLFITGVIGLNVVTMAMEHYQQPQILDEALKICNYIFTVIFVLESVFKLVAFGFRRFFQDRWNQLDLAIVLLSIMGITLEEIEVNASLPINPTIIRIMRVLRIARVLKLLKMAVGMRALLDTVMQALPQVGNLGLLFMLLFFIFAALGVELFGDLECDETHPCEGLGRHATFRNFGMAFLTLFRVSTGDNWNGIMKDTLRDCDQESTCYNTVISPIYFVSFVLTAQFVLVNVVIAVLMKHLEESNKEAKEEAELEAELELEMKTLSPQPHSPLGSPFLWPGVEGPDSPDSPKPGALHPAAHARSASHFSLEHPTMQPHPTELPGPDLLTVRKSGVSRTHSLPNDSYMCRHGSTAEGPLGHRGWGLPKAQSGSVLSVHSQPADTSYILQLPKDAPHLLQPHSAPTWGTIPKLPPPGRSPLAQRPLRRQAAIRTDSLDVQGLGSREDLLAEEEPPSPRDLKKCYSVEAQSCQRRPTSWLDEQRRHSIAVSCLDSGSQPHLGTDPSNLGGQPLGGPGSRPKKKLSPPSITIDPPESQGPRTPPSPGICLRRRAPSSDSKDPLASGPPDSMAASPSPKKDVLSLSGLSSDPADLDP
T2 sequence (O95180 whole entry): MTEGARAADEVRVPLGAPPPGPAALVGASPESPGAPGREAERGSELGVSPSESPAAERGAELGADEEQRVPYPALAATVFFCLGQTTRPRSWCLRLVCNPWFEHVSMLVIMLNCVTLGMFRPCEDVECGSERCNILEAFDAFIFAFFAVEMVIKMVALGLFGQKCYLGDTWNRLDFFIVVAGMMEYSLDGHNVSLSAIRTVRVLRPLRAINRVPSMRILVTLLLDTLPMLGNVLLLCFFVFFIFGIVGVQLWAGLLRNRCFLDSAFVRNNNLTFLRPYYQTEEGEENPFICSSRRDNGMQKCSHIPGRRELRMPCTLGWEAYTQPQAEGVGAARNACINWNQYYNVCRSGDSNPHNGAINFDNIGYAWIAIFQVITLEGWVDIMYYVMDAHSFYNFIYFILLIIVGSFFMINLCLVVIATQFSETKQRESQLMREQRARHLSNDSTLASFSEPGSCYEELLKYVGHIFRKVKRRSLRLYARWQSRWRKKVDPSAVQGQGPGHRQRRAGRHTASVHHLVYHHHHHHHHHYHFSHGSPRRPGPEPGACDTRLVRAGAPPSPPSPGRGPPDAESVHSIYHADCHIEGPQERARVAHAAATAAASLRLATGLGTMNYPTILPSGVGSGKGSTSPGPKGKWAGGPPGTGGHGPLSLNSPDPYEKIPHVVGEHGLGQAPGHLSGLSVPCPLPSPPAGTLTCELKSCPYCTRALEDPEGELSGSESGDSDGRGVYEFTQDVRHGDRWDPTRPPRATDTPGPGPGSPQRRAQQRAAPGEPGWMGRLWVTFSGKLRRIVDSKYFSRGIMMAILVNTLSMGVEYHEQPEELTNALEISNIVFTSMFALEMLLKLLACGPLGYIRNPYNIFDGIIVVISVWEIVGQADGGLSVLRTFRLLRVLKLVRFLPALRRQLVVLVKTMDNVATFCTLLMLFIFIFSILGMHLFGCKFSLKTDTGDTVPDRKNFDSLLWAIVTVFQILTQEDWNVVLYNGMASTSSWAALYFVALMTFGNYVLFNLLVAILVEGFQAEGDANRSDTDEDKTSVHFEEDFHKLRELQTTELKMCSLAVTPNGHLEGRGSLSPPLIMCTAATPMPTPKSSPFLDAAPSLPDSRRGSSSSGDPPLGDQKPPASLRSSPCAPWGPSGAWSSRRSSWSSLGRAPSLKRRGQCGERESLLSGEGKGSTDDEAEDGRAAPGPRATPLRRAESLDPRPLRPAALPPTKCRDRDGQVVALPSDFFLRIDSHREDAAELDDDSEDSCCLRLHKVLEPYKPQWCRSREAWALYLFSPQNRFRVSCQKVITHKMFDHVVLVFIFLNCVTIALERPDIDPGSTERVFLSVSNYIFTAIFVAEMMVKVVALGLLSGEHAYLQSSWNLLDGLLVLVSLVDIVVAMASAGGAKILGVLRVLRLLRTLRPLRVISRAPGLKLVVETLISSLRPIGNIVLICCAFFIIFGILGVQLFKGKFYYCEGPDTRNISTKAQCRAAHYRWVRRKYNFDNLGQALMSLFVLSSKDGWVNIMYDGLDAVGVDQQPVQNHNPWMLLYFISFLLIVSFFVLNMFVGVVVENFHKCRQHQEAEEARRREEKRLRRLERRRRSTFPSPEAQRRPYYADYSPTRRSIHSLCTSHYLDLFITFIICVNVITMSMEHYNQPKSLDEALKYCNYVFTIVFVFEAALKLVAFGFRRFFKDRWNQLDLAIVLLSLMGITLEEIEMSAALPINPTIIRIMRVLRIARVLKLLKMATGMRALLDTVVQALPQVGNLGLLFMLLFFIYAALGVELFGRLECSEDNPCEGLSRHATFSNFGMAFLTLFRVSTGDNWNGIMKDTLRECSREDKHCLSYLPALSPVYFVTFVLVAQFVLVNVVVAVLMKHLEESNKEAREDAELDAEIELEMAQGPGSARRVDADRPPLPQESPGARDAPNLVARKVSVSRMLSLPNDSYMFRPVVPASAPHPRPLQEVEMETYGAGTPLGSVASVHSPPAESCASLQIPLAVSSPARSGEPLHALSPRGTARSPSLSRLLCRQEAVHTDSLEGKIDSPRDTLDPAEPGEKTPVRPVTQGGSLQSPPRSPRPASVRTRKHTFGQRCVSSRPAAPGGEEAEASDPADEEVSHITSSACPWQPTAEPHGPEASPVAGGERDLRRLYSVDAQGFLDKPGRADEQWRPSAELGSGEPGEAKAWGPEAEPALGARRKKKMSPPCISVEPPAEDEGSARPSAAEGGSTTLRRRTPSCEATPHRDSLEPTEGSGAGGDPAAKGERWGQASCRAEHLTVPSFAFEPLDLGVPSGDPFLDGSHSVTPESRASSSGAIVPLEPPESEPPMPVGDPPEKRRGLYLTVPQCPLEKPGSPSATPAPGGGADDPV

Row | SMILES | effect of TTA-P2 on facial pain threshold, CFA model [1, 6] | effect of TTA-P2 on facial pain threshold, CCI-ION model (CCI-ION model rats; [6]) | inactivation constant V1/2 of subtype Cav3.1, left shift ([2]; 10 μM miloxacin vs. control) [mV] | subtype Cav3.1 current reduced compared to control [2, 7] [%] | IC50 ([2]; dose-effect curve) [µM] | inactivation constant V1/2 of subtype Cav3.2, left shift ([3]; 10 μM miloxacin vs. control) [mV] | subtype Cav3.2 current reduced compared to control [3, 7] [%] | IC50 ([3]; dose-effect curve) [µM] | subtype Cav3.3 current reduced compared to control [4] [%] | T-type calcium channel current reduced compared to control (T-type calcium channel; 10 μM miloxacin) [%] | IC50 (T-type calcium channel; dose-effect curve) [µM] | action potential (number in a 1-sec stimulation course) [5] | effect on facial pain threshold of normal rats (normal rats) | effect on facial pain threshold (mechanical hyperalgesia), CFA model [1, 8] | effect on facial pain threshold (mechanical hyperalgesia), CFA model [1, 9] | effect of miloxacin after TTA-P2 on facial pain threshold, CFA model [1, 10] | effect on facial pain threshold (mechanical hyperalgesia), CCI-ION model (CCI-ION model rats; [8]) | effect on facial pain threshold (mechanical hyperalgesia), CCI-ION model (CCI-ION model rats; [9]) | effect of miloxacin after TTA-P2 on facial pain threshold, CCI-ION model (CCI-ION model rats; [10])
1 | CC1(C)C[C@@H](CN2CCC(F)(CNC(=O)c3cc(Cl)cc(Cl)c3)CC2)CCO1 [TTA-P2, 3,5-dichloro-N-[[4-fluoro-1-[[(4S)-tetrahydro-2,2-dimethyl-2H-pyran-4-yl]methyl]-4-piperidine]methyl]benzamide] | can increase the facial pain threshold | can increase the facial pain threshold | – | – | – | – | – | – | – | – | – | – | – | – | – | – | – | – | –
2 | COn1cc(C(=O)O)c(=O)c2cc3c(cc21)OCO3 [miloxacin] | – | – | 6.5±0.7 | 49.6±2.9 | 6.5 ± 0.9 | 8.5±0.3 | 57.2±3.3 | 8.2 ± 0.6 | 2.1±0.7 | 52.7±2.6 | 7.7 ± 0.6 | 6.1±0.3 | does not affect the facial pain threshold | significantly reversed mechanical hyperalgesia | significantly reversed mechanical hyperalgesia | does not further increase the facial pain threshold | significantly reversed mechanical hyperalgesia | significantly reversed mechanical hyperalgesia | does not further increase the facial pain threshold
